Reference: US20180044343A1, “BICYCLIC IMIDAZOLO DERIVATIVE” (Sumitomo Dainippon Pharma Co., Ltd., priority 2015, published 2018)

Tests used:
[1] = molecular target: T1, PDE1C (Homo sapiens, UniProt Q14123); test: In vitro HTRF PDE1 inhibition assay (PDE1C); assay type: biochemical; conditions: 100 nM cyclic GMP
Excerpt: (§1) An exemplary procedure for the in vitro Homogenous Time Resolved Fluorescence assay, which can be used to determine the inhibitory action of compounds of the present invention toward PDE1 or its isoforms, follows.
(§2) The HTRF PDE1 assay utilized the HTRF (Homogenous Time Resolved Fluorescence) technology, which is based on the competition between unlabeled cyclic nucleotide and cyclic nucleotide labeled with XL665 for the binding to cyclic nucleotide-specific antibody labeled with cryptate. The HTRF signal is thus inversely proportional to the concentration of cyclic nucleotide being measured. Since phosphodiesterases break down cyclic nucleotides, the HTRF signal was used to determine PDE activity.
(§3) The Cisbio cGMP HTRF assay kit (Cat no: 62GM2PEC) was utilized. Cyclic GMP was diluted to 200 nM in HTRF assay buffer (1 mM CaCl2, 10 mM MgCl2, 10 mM Tris-HCl, 0.1% BSA, pH 7.4). 10 μl of compound or DMSO was diluted in 200 nM cyclic GMP solution and added to wells of a 96 well white plate to give 100 nM cyclic GMP in 1% DMSO final concentration. PDE (1A3, 1B or 1C) was diluted to 2× working concentration in HTRF assay buffer with 2 μg/ml Calmodulin, and 10 μl was added to initiate the reaction. The plate was then incubated for 45 minutes at 27° C. d2-Labelled cyclic GMP and anti-cGMP cryptate were diluted in 50 mM phosphate buffer, 0.8 M KF, 1% Triton X100, 0.2% BSA, pH 7.0. Following incubation 10 μl d2-cGMP, then 10 μl anti cGMP cryptate were added to each well and the plate was incubated for 60 minutes at room temperature. The plate was then read on Perkin Elmer EnVision at 2 different FRET readings ex/em 340 nm/665 nm and 340 nm/615 nm.
(§4) Compounds having an IC50 of <1 μM are denoted as +++. Compounds having an IC50 of 1-10 μM are denoted as ++. Compounds having an IC50 of 10-100 μM are denoted as +.

[2] = molecular target: T2, PDE1A3 (Homo sapiens, UniProt P54750); test: In vitro SPA PDE1 inhibition assay (PDE1A3); assay type: biochemical; conditions: PDE1A3, [3H]-cGMP 100 nM
Method: (§5) The commercially available Scintillation Proximity Assay (SPA) system (Perkinelmer) was used for PDE1 inhibition assays. SPA Yttrium Silicate beads preferentially binds to non-cyclic GMP compared to cyclic GMP (cGMP) in the presence of zinc sulphate, which enables to measure the amount of enzyme reaction product ([^3H]-GMP) by scintillation counting.
(§6) For PDE1 inhibition assay, 10 μl of the test compounds in 5% dimethyl sulfoxide diluted in SPA assay buffer (1 mM CaCl2, 10 mM MgSO4, 10 mM Tris-HCl, pH 7.4) were placed in a 96-well white microtiter plate, and 20 μl of [^3H]-cGMP solution (100 nM final concentration, Perkinelmer) in SPA assay buffer was added. Assays were initiated by adding 20 μl of PDE (1A3, 1B or 1C) enzyme solution including calmodulin (final concentration 1 μg/ml). After 30 min incubation at 27° C., the reaction was stopped by the addition of 50 μl of a suspension of 10 mg/ml SPA beads in 18 mM ZnSO4. The microtiter plates were settled for 60 min, and then were measured in a TopCount NXT scintillation counter (PerkinElmer). IC50 values were determined from sigmoidal curves by plotting the percentage of PDE activity versus log compound concentration. IC50 was defined as the concentration of the test compounds required to inhibit the cyclic nucleotide hydrolyzing activities of tested PDEs by 50%.

[3] = molecular target: T1, PDE1C; test: In vitro SPA PDE1 inhibition assay (PDE1C); assay type: biochemical; conditions: [3H]-cGMP 100 nM
Method: as §5, §6

[4] = molecular target: T3, PDE1B (Homo sapiens, UniProt Q01064); test: In vitro SPA PDE1 inhibition assay (PDE1B); assay type: biochemical; conditions: [3H]-cGMP 100 nM
T3 sequence (Q01064 whole entry): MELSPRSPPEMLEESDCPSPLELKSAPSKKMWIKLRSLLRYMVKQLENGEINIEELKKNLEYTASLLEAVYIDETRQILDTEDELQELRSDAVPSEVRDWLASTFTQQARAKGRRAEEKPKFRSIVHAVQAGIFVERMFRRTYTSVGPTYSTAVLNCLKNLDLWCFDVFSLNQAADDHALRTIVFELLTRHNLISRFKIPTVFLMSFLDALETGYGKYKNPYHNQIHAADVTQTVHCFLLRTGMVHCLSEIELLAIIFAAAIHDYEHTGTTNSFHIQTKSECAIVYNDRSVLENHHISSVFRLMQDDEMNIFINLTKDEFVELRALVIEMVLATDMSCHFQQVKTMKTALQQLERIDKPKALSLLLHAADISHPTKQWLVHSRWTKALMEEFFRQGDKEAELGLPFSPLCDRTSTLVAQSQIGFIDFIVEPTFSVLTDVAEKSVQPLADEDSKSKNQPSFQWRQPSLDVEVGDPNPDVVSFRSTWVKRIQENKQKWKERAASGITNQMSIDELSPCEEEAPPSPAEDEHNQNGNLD
Method: as §5, §6

[5] = molecular target: T2, PDE1A3; test: In vitro HTRF PDE1 inhibition assay (PDE1A3); assay type: biochemical; conditions: PDE1A3, 100 nM cyclic GMP
Excerpt: as §1, §2, §3, §4

[6] = molecular target: T3, PDE1B; test: In vitro HTRF PDE1 inhibition assay (PDE1B); assay type: biochemical; conditions: in vitro PDE1B HTRF Assay; read-out: IC50
Method: The Cisbio cGMP HTRF assay kit (Cat no: 62GM2PEC) was utilized. Cyclic GMP was diluted to 200 nM in HTRF assay buffer (1 mM CaCl2, 10 mM MgCl2, 10 mM Tris-HCl, 0.1% BSA, pH 7.4). […] PDE (1A3, 1B or 1C) was diluted to 2× working concentration in HTRF assay buffer with 2 μg/ml Calmodulin, and 10 μl was added to initiate the reaction. The plate was then incubated for 45 minutes at 27° C. d2-Labelled cyclic GMP and anti-cGMP cryptate were diluted in 50 mM phosphate buffer, 0.8 M KF, 1% Triton X100, 0.2% BSA, pH 7.0. Following incubation 10 μl d2-cGMP, then 10 μl anti cGMP cryptate were added to each well and the plate was incubated for 60 minutes at room temperature. The plate was then read on Perkin Elmer EnVision at 2 different FRET readings ex/em 340 nm/665 nm and 340 nm/615 nm.

[7] = Evaluation of bioavailability, PK test in rats; assay type: in vivo; conditions: rat; 7 week-old SD rats, intravenous vs oral administration, plasma LC-MS
Method: This test can be used to assess pharmacokinetics of the compounds of the present invention. Each compound of the invention was administered to 7 week-old SD rats intravenously with a solution in saline: 0.1N HCl=9:1 or orally with a 0.5% suspension in methyl cellulose, and each blood sample was collected at an appropriate interval as follows:
5, 15, and 30 minutes, and 1, 2, 4, 6, and 24 hours after intravenous administration
15 and 30 minutes, and 1, 2, 4, 6, and 24 hours after oral administration
The plasma was obtained from each blood, and the concentration of each compound in the plasma was measured with an LC-MS to calculate each pharmacokinetic parameter based on the concentration change.

[8] = Test for drug transportation to brain in rats; assay type: in vivo; conditions: rat; SD rats, oral, one hour after administration; non-binding drug concentration ratio between brain and plasma
Excerpt: Test for Drug Transportation to Brain in Rats
This test can be used to assess transportation of the compounds of the present invention to the brain. Each compound of the invention was orally administered to 7 week-old SD rats with a 0.5% suspension in methyl cellulose, and each plasma and brain were collected one hour after administration to measure the concentration of each compound in the plasma and the brain with an LC-MS.
Each protein binding ratio of the compounds in the plasma and the brain was measured by the equilibrium dialysis method.
The obtained concentrations and protein binding ratios of the compounds in the plasma and the brain can be applied to the following equation to calculate Kp, uu, brain (i.e., non-binding drug concentration ratio between brain and plasma).
Kp, uu, brain=[Compound concentration in brain×(100−Protein binding ratio in brain (%))/100]/[Compound concentration in plasma×(100−Protein binding ratio in plasma (%))/100]

SMILES	IC50 [1] [µM]	IC50 [2] [µM]	IC50 [3] [µM]	IC50 [4] [µM]	IC50 [5] [µM]	IC50 [6] [nM]	bioavailability [7] [%]	Kp uu at 1 h [8]
CCn1c(OC[C@H]2CC[C@H](OC)CC2)nn2c(C3CCOCC3)ncc2c1=O [Example 91]	< 1	0.074	0.199	0.028	< 1	< 1000	–	–
Cc1nn2c(C3CCOCC3)ncc2c(=O)n1Cc1ccccc1 [Example 238, 3-Benzyl-2-methyl-7-(tetrahydro-2H-pyran-4-yl)imidazo[5,1-f][1,2,4]triazin-4(3H)-one]	< 1	0.137	0.027	0.145	< 1	< 1000	–	–
CCc1nn2c(C3CCOCC3)ncc2c(=O)n1CC1CCC(F)(F)CC1 [Example 239, 3-[(4,4-Difluorocyclohexyl)methyl]-2-ethyl-7-(tetrahydro-2H-pyran-4-yl)imidazo[5,1-f][1,2,4]triazin-4(3H)-one]	< 1	0.065	0.125	0.079	< 1	< 1000	–	–
CCO[C@H]1CC[C@H](COc2nn3c(C4CCOCC4)ncc3c(=O)n2C)CC1 [Example 246, 2-[(trans-4-ethoxycyclohexyl)methoxy]-3-methyl-7-(tetrahydro-2H-pyran-4-yl)imidazo[5,1-][1,2,4]triazin-4(3H)-one]	< 1	0.289	0.788	0.064	< 1	< 1000	51.6	0.26
CCOC[C@H]1CC[C@H](Oc2nn3c(C4CCOCC4)ncc3c(=O)n2C)CC1 [Example 256, 2-{[trans-4-(ethoxymethyl)cyclohexyl]oxy}-3-methyl-7-(tetrahydro-2H-pyran-4-yl)-imidazo-[5,1-][1,2,4]triazin-4(3H)-one]	< 1	–	–	–	< 1	< 1000	14.3	–
CCn1c(O[C@H]2CC[C@H](COC)CC2)nn2c(C3CCOCC3)ncc2c1=O [Example 317, 3-ethyl-2-{[trans-4-(methoxymethyl)cyclohexyl]oxy}-7-(tetrahydro-2H-pyran-4-yl)-imidazo[5,1-][1,2,4]triazin-4(3H)-one]	< 1	0.042	0.194	0.027	< 1	< 1000	–	–
CNc1nn2c(C3CCOCC3)ncc2c(=O)n1Cc1ccccc1 [Example 200]	< 1	0.133	0.024	0.109	< 1	< 1000	–	–
